Source: a melting point compilation (Tetko et al.; mined from patent text by program, amines drawn as free bases though some values may be those of a salt)

Work on `Cc1nc(C)c(Cl)c(NCc2nccc(SCCCN3CCNCC3)c2C)n1` yielded a melting point of 144 to 145 °C. In the case of `COC(=O)c1cc(C)c(C(=O)OC)c(OC)c1`, the melting point is reported as 98 to 99 °C. Work on `CCOC(=O)Cn1nc(-c2ccccc2O)nc1-c1ccccc1O` yielded a melting point of 172 to 174 °C. Work on `CCOC(=O)C1=NS(=O)(=O)c2ccccc21` yielded a melting point of 114 to 115 °C. Work on `COC(=O)c1ccc(OCCCN(C(C)=O)c2ccc(Cl)cc2)cc1` yielded a melting point of 68 to 69 °C. With `O=c1[nH]nc2ccc(-c3ccccc3)nn12` the melting point was 255 to 257 °C. `CCCCc1ccc2nc(C(=O)OCC)cc(Cl)c2c1` showed a melting point of 54.5 to 56 °C. With `CCc1cccc(CC)c1NC(=O)NCC1(c2ccccc2)CCCC1` the melting point was 165 to 167 °C. Compound `O=C(Nc1ccccc1)c1ccc(F)c(NC(=S)Nc2cc(Cl)cc(Cl)c2)c1` has a melting point of 173 to 175 °C. `Cc1noc(NC(=O)N2CCN(c3nc(-c4cccc(C(F)(F)F)c4)cs3)CC2)c1C` showed a melting point of 230 to 231 °C. With `CC(Cl)CCC(=O)c1ccccc1` (stereo not given) the melting point was 28 to 30 °C. With `CN(C)Cc1ccc(Cc2cnc(N[N+](=O)[O-])[nH]c2=O)cc1` the melting point was 214 to 217 °C. With `C#Cc1ccc(CCNC(=O)c2cc(Cl)ccc2OC)cc1S(=O)(=O)NC(=S)NC` the melting point was 224 to 225 °C. Compound `COC(=O)C(=O)Nc1c(-c2ccccc2)c(=O)[nH]c2cc(Cl)ccc12` has a melting point of 240 °C. `CCn1c(=O)c(-c2c(Cl)cccc2Cl)cc2cnc(NCCCN3CCN(C)CC3)nc21` showed a melting point of 126 to 128 °C. With `CN(C)CCN(C(=O)N(C)C)c1nc2ccccc2[nH]1` the melting point was 193 to 195 °C. `CCOC(=O)CC(NC(=O)c1ccc(Cl)cc1)C(=O)c1cccs1` (stereo not given) showed a melting point of 112 to 113 °C. For `Oc1ccc(Nc2ncc3ncc(-c4cccc(O)c4)cc3n2)cc1`, the melting point was over 268 °C. Work on `Clc1cccc2c(C3CCN(CCCOc4cccc5[nH]ccc45)CC3)c[nH]c12` yielded a melting point of 178 to 182 °C. `COC(=O)C(C)(SC)c1ccc(N2CCCCC2)c(Cl)c1` (stereo not given) gave a melting point of 83.5 to 85 °C. Work on `Cc1cccc(Nc2cc(Cl)nc(SCC(=O)NN)n2)c1C` yielded a melting point of 185 to 189 °C. `CCCCCC[C@H](CC(=O)OC(C)(C)C)C(=O)N1C(=O)OC[C@@H]1C(C)C` showed a melting point of 50 to 51 °C. With `C1CN2CCN3CCN(CCN1)P23` the melting point was 109 to 111 °C. Compound `CCOC(=O)C1=C(C)NC(=S)N(C(=O)OCC)C1c1cccc(OCc2ccccc2)c1` (stereo not given) has a melting point of 119 to 121 °C. With `CCOC(=O)c1cnn(-c2ccc(Cl)cc2Cl)c1C#N` the melting point was 79 to 81 °C. Work on `CCS(=O)(=O)c1cc(C(=O)NCC2CCCN2CC2=CCCC2)c(OC)cc1N` (stereo not given) yielded a melting point of 125 to 126 °C. In the case of `COc1cc2c(cc1C(=O)c1cc(C(C)(C)C)c(O)c(C(C)(C)C)c1)CCC2`, the melting point is reported as 154 to 156 °C. Work on `O=C(Oc1ccccc1)c1ncn2c1[C@@H]1CCCN1C(=O)c1c(Cl)cccc1-2` yielded a melting point of 211 to 212 °C. With `Oc1ccc(Nc2nc(NCc3ccco3)nc(Nc3ccc(Br)cc3)n2)cc1` the melting point was 37 to 39 °C. With `O=C(O)Cn1c(=O)c(=O)[nH]c2ccc3ccc(-n4ccc(CN5CCN(C(c6ccccc6)c6ccccc6)CC5)c4)cc3c21` the melting point was over 250 °C. `N#CC(CCN1CCC(C(=O)ON2C(=O)c3ccccc3C2=O)(c2ccccc2)CC1)(c1ccccc1)c1ccccc1` showed a melting point of 156 to 158 °C. With `O=C(Nc1[nH]nc(-c2c(Cl)cc(C(F)(F)F)c(F)c2Cl)c1[N+](=O)[O-])C(Cl)Cl` the melting point was 115 to 117 °C. `CC(Br)C(=O)c1cc([N+](=O)[O-])cs1` (stereo not given) gave a melting point of 82.5 to 83 °C. Work on `CCc1cnc(N2CCN(C(=O)OC(C)(C)C)CC2)nc1` yielded a melting point of 67 to 68 °C. For `COc1ccc(N2CCOCC2)c2sc(-c3nc4c([nH]3)CCN(C(=O)OC(C)(C)C)CC4)nc12`, the melting point was 120 °C. Work on `N#Cc1ccccc1S(=O)(=O)c1ccc(N)cc1` yielded a melting point of 177 to 179 °C. `O=C(Cn1ncc(-c2ccccc2)c1-c1ccccc1)NCCCN1CCCC1` showed a melting point of 75 to 79 °C. In the case of `COC(=O)c1ccc2c(c1)C(=O)CC(C)(COc1ccc([N+](=O)[O-])cc1)O2` (stereo not given), the melting point is reported as 144 to 145 °C. In the case of `Nc1ncnc2c1c(-c1ccc(Oc3ccccc3)cc1)nn2C1CCC(=O)CC1`, the melting point is reported as 203 to 205 °C. Compound `CC(=O)c1cc(Br)c(N)c(CN(C)C)c1` has a melting point of 92 to 95 °C. In the case of `CNC(=O)CC1CN=C(c2cc3cc(Oc4ccc(CS(C)(=O)=O)nc4)cc(OC4CCOCC4)c3[nH]2)S1` (stereo not given), the melting point is reported as 157 to 158 °C. `COc1ccc(Nc2c(C#N)cnc3cc(OC)c(OC)cc23)cc1Cl` showed a melting point of 278 to 280 °C. Compound `O=C(NCCO)c1ccc(CCN2CCN(Cc3ccccc3Cl)CC2)cc1` has a melting point of 121 to 122 °C. `CCOC(=O)c1c(C(F)(F)F)nc(C(F)(F)Cl)c(C(=O)OC)c1N1CCCC1` gave a melting point of 72 to 73.5 °C. Work on `Cc1ccc2c(c1)c1c(n2C(=O)c2ccccc2)CCC(C(=O)O)C1` (stereo not given) yielded a melting point of 200 to 202 °C. `Cc1nc(-c2ccc(OCCCCCOc3ccc(C(=N)NO)cc3)cc2)c(C(C)C)s1` gave a melting point of 97 °C. For `CC(=O)c1cc(Br)cc(Cc2cc(Cl)cc(Cc3cc(Br)ccc3O)c2O)c1O`, the melting point was 185 to 186 °C. With `COC(=O)Cc1c(Cl)nc(C)nc1Nc1ccccc1` the melting point was 115 to 116 °C. For `CNc1nc2c(s1)C(=O)CCC2`, the melting point was 180 to 182 °C. `CCCCCC(c1ccc(OC)cc1OC)C(C(N)=O)c1cc(C(=O)O)ccc1C(C)(C)C` (stereo not given) gave a melting point of 153 to 154 °C. `N#CCCN(CCC#N)CC(=O)O` showed a melting point of 73 °C. Work on `COC(=O)C(C)=Cc1cc(N=C=S)ccc1Cl` yielded a melting point of 60 to 61 °C. For `N#Cc1cc2[nH]c(=O)c3n[nH]c(=O)n3c2cc1-n1ccnc1`, the melting point was over 300 °C. Work on `COc1cn(-c2ccc(OC(F)(F)F)cc2F)nc(-c2ccnn2-c2ccccc2)c1=O` yielded a melting point of 117 to 118 °C. With `C=CC(=O)c1ccc([N+](=O)[O-])cc1` the melting point was 89 to 90 °C. `COC(=O)[C@@H]1COC(c2ncn3c2CN(C)C(=O)c2ccccc2-3)=N1` gave a melting point of 190 to 192 °C. Compound `COc1cc(Nc2c(C#N)cnc3cc(OS(=O)(=O)C(F)(F)F)c(OC)cc23)c(Cl)cc1Cl` has a melting point of 220 to 223 °C. For `Cc1nc2c(C)nn(C)c2c(=O)[nH]1`, the melting point was 258 to 260 °C. Compound `CC(C)(CCl)C(O)C(=Cc1ccc(Cl)cc1)n1cncn1` (stereo not given) has a melting point of 170 °C. Compound `CCOC(=O)CS(=O)(=O)CCCC=C1SC=CS1` has a melting point of 79.5 to 81 °C. In the case of `CC(=O)CCN1CCC(Nc2nc3ccccc3n2Cc2ccc(F)cc2)CC1`, the melting point is reported as 131 °C. In the case of `COC(=O)COc1ccc(C(=O)NNC(=O)c2ccc(C(=N)SC)cc2)cc1`, the melting point is reported as 208 to 210 °C. `CC(C)N1C(=O)c2cccc3c(S(C)(=O)=O)ccc1c23` gave a melting point of 164 to 165 °C. In the case of `Cc1cccc(C)c1C(=O)c1sc(Nc2ccc(N3CCOCC3)cc2)nc1N`, the melting point is reported as 221 to 223 °C. With `Cc1cc(-c2nnc3c4ccccc4c(OCc4ncn(C)n4)nn23)no1` the melting point was 249 to 251 °C. With `CC(C)Nc1nc(N)nc2c1ncn2C1C=CC(CO)C1` (stereo not given) the melting point was 87 to 90 °C. For `CCC(C)(C)c1cc(C(=O)COc2ccc(C=O)cc2OC)cc(C(C)(C)CC)c1O`, the melting point was 106 to 107 °C. `NC(=O)c1ncoc1-c1cccc(O)c1` showed a melting point of 202 to 204 °C. In the case of `CC1=CC(O)C(OC(=O)c2ccc(Cl)cc2)C(C)(C)CC1=O` (stereo not given), the melting point is reported as 114 to 116 °C. In the case of `Cc1nc2ccnn2c(=O)[nH]1`, the melting point is reported as 268 °C. In the case of `Nc1cccc(NC(=O)C(=O)N2CCC(Cc3ccccc3)CC2)c1`, the melting point is reported as 103 to 105 °C. With `Cc1c(C(F)(F)F)cnn(-c2cc(OCC3CO3)c(Cl)cc2F)c1=O` (stereo not given) the melting point was 127 °C. In the case of `COC(=O)c1cc2cc(Br)ccc2nc1C`, the melting point is reported as 150 to 151 °C. `CC#CCOc1cc(Nc2cccc(F)c2F)ncn1` showed a melting point of 148 °C. Compound `Cn1cc(S(C)=O)c(=O)c2sc(-c3cccc(Cl)c3)cc21` (stereo not given) has a melting point of 249 to 251 °C. Work on `CCOCCC(=O)NN` yielded a melting point of 34 °C. In the case of `CCCCN1C(=O)CC(=O)N(c2ccccc2)c2cc(Cl)ccc21`, the melting point is reported as 159 to 161 °C. Work on `CCC1(CC)c2cc(Br)ccc2-c2ccc(-c3nc4ccccc4s3)cc21` yielded a melting point of 134 to 135 °C. In the case of `O=S(CCl)c1ncc(Cl)cn1` (stereo not given), the melting point is reported as 90 °C. For `CNc1ncnc2c1ncn2CCCN1CCN(c2ccccc2)CC1`, the melting point was 162 to 163 °C. With `CCOC(=O)C1CCC(n2nc(-c3c(-c4ccccc4)nn4ccccc34)ccc2=O)CC1` (stereo not given) the melting point was 156 to 160 °C. `COc1cccc(S(=O)(=O)c2ccc(C)nc2Nc2c(C)cc(C)cc2C)c1` showed a melting point of 87 to 88 °C. Work on `Nc1ncnc2c1ncn2OCC/C=C/P(=O)(O)O` yielded a melting point of 238 °C. Compound `CC1(C)CC(NC(=O)CCC(=O)NC2CC(C)(C)N(OC3CCCCC3)C(C)(C)C2)CC(C)(C)N1OC1CCCCC1` has a melting point of 230 to 234 °C. `Nc1nc[nH]c(=O)c1O` gave a melting point of over 300 °C. `CC1(C)OC(=C(C#N)C#N)C(C#N)=C1C=Cc1c(F)c(F)c(N2C3C4CCC(C4)C32)c(F)c1F` (stereo not given) gave a melting point of 233 °C. `CCS(=O)(=O)C(F)(F)C(Cn1cncn1)(OP(=O)(O)O)c1ccc(F)cc1F` (single isomer, unassigned; (+)) gave a melting point of 212 to 214 °C. Work on `CC(Br)C(C)N1C(=O)C2(OCCCO2)c2cc(S(=O)(=O)N3CCCC3)ccc21` (stereo not given) yielded a melting point of 152 to 153 °C. `CC(C)(c1ccccc1)n1nnc(-c2ccccc2-c2ccc(CBr)cc2)n1` showed a melting point of 108 to 109 °C. For `N#CC=C1c2ccccc2C=Cc2ccccc21`, the melting point was 137 to 138 °C. In the case of `O=C(c1ccccc1)N(c1ccccc1)c1ccc(OCc2ccccc2)cc1`, the melting point is reported as 141 to 143 °C. Compound `CCN(CC)CCN(C)C1(c2ccccc2Cl)C(=O)Nc2ccc(Cl)cc21` (stereo not given) has a melting point of 140 °C. `Nc1nc(NC(=O)c2cccnc2)nc(-c2ccc3ccccc3c2O)n1` showed a melting point of 301 to 302 °C. Compound `CC(C)CC(=O)Nc1ccc2oc3c(c2c1)CCC3` has a melting point of 162 to 163 °C. `O=[N+]([O-])c1ccc(OCc2ccc(Cl)cc2)cc1F` showed a melting point of 86 to 88 °C. Work on `COc1ccc(C(=O)Nc2ccc(F)c(F)c2)cc1NCc1cccs1` yielded a melting point of 172 to 174 °C. `COC(=O)CCCCCCCCCCCCCCCCCCCCCOS(=O)(=O)c1ccc(C)cc1` showed a melting point of 74 to 76 °C. Work on `NC(=O)c1ccc(C(F)(F)F)cc1N1CCc2nc(NS(=O)(=O)c3cc(C(F)(F)F)cc(C(F)(F)F)c3)sc2C1` yielded a melting point of 225 to 228 °C. For `CCCc1nc(C)n2nc(S)nc2c1Cc1ccc([N+](=O)[O-])cc1`, the melting point was 210 °C. In the case of `COc1ccc(-c2c(Cl)c(CN3C(=O)CCC3=O)nc3sc4c(c23)CCN(C(=O)C(F)(F)F)C4)cc1`, the melting point is reported as 250 to 252 °C.
